Laboratory results as given in patent US6476019B1, “Spirocyclic ligands for sigma receptors, and libraries and methods of use thereof” (Sepracor Inc., priority 1999, dated 2002).
One block for each compound: values may come before it.

Experiments:
[1] = system: Rat Glutamate, NMDA (Agonist); assay: Additional receptor assay; format: binding; settings: 10 μM
Protocol: (§1) Results of Additional Receptor Assays Performed on Compound 31 at a Concentration of 10 μM

Rat GABAA Transporter = assay: Additional receptor assay; format: binding; settings: 10 μM
Protocol: as §1

[2] = system: Rat GABAA Benzodiazepine (Central); assay: Additional receptor assay; format: binding; settings: 10 μM
Protocol: as §1

Human Orphanin (ORL1) = Human Orphanin (ORL1) (Homo sapiens, UniProt P41146); assay: Additional receptor assay; format: binding
Protocol: as §1

[3] = target: Rat GABAA Benzodiazepine (Peripheral) (Rattus norvegicus, UniProt P16257); assay: Additional receptor assay; format: binding
Protocol: as §1

[4] = system: Rat GABAA Chloride Channel; assay: Additional receptor assay; format: binding; settings: 10 μM
Protocol: as §1

Human Adrenergic α2C = Human Adrenergic α2C (Homo sapiens, UniProt P18825); assay: Additional receptor assay; format: binding
Protocol: as §1

Rat GABAA Agonist Site = assay: Additional receptor assay; format: binding; settings: 10 μM
Protocol: as §1

Human Adrenergic α2A = Human Adrenergic α2A (Homo sapiens, UniProt P08913); assay: Additional receptor assay; format: binding
Protocol: as §1

Rat Adrenergic α1 = assay: Additional receptor assay; format: binding; settings: 10 μM
Protocol: as §1

Human Adrenergic β3 = Human Adrenergic β3 (Homo sapiens, UniProt P13945); assay: Additional receptor assay; format: binding
Protocol: as §1

[5] = system: Rat Glutamate, NMDA (Phencyclidine); assay: Additional receptor assay; format: binding; settings: 10 μM
Protocol: as §1

Rat GABAB = Rat GABAB (Rattus norvegicus, UniProt Q9Z0U4); assay: Additional receptor assay; format: binding; settings: 10 μM
Protocol: as §1

Human Adrenergic β1 = Human Adrenergic β1 (Homo sapiens, UniProt P08588); assay: Additional receptor assay; format: binding
Protocol: as §1

Human Adrenergic β2 = Human Adrenergic β2 (Homo sapiens, UniProt P07550); assay: Additional receptor assay; format: binding
Protocol: as §1

[6] = target: Rat Glutamate, NMDA (Glycine) (Rattus norvegicus, UniProt P35439); assay: Additional receptor assay; format: binding
Protocol: as §1

[7] = system: Rat Glutamate, NMDA (Polyamine); assay: Additional receptor assay; format: binding; settings: 10 μM
Protocol: as §1

human serotonin 5-HT2A = human serotonin 5-HT2A (Homo sapiens, UniProt P28223); assay: Behavioral receptor assays: 5-HT2A; format: binding; settings: read-out: Receptors (IC50) 5-HT2A
Protocol: (§2) Various compounds of the present invention (19, 31, and 32) were evaluated in a group of assays based on mammalian cellular receptors associated with behavior. The group consisted of assays base on human dopamine D1, D2L, D3, D4.2, D4.4, D4.7, and D5 receptors, and the transporter; human serotonin 5-HT1A, 5-HT1B, 5-HT1D, 5-HT2A, 5-HT2B, 5-HT2C, 5-HT3, 5-HT5A, 5-HT6, and 5-HT7 receptors, and the human serotonin transporter; guinea pig 5-HT4 and sigma-1 receptors; rat sigma-2 and muscarinic receptors; and human NK1-3 receptors. The following table presents a subset of the results of these assays.

Male Wistar rats = assay: MK-801-Induced Psychosis Model; format: in vivo, rat; settings: rat, 1 mg/kg i.p.; MK-801 0.3 mg/kg i.p.
Source text: The non-competitive NMDA receptor antagonist MK-801 induces stereotypies and hyperactivity in rodents (1) by interacting with the NMDA receptor-associated ion channel. Phencyclidine, which also interferes with the NMDA receptor, produces psychotic effects in humans similar in many respects to schizophrenia. […] Therefore the MK-801-induced activity and stereotypies in rats may represent an appropriate animal model to test the potential efficacy of antipsychotic drugs.
Male Wistar rats (Iffa Crédo, St Germain/l'Arbresle, France), weight 250-300 g were housed 2 per cage on a 12 h/12 h light dark cycle (lights on at 7.00 a.m.) at a room temperature of 21±2° C. for a minimum of 5 days before testing. All animals had access to commercial food and tap water ad libitum.
On the day of the experiment, rats were treated with either reference drug vehicle, the reference drugs haloperidol or clozapine the test compound vehicle or test compounds. After administration, the rats were returned to their home cages for 15 minutes. […] The remaining rats treated with placebo received a second injection of vehicle. The standard injection volume was 2.0 ml/kg. After 10 minutes in the home cages, rats were transferred to the test box (Plexiglas, 29×12×12 cm), 5 minutes before the assessment for accomodation. The test box was cleaned with 70% ethanol before each assessment. Stereotypies, defined as wall-contacts with the snout, and locomotion, defined as turn-rounds of 180°, were assessed during 5 minute periods.

Male rats = assay: Elevated plus maze test (anxiolytic effects); format: in vivo; settings: rat, doses 1 mg/kg and 5 mg/kg
Source text: In the present study, 32 was investigated on measures of anxiety in an elevated plus-maze test in the rat. In this test, an anxiolytic effect is defined as an increase in the percentage of total entries made onto the open arms and an increase in the percentage of time spent on the open arms of the elevated plus-maze. Anxiogenic drugs reduce both of these measures.
Male rats (Iffa Crédo, St Germain/l'Arbresle, France), weight 220−320 g ate the beginning of the experiment were housed 2 per cage on a 12 h/12 h light dark cycle (lights on at 7.00 a.m.) at a room temperature of 21±2° C. for a minimum of 5 days before testing. All animals had access to commercial food and tap water ad libitum.
The elevated plus maze test consists of four arms connected by a central square, the arms are all horizontal and at 90° […]. angle from each other making the shape of a plus sign. The maze is raised to a height of 50 cm from the ground. […] These arms are therefore referred to as the enclosed arms, respectively.
Each test was started by placing the rat at the intersect of the maze arms facing into one of the enclosed arms. The rat had free access to all 4 arms for the period of 5 min. The number and duration of entries into each arm during this time were scored manually.
Undruged rats typically spend 30-60 seconds on the open arms and about 3 minutes on the closed arms. […]

human serotonin 5-HT2B = human serotonin 5-HT2B (Homo sapiens, UniProt P41595); assay: Behavioral receptor assays: 5-HT2B; format: binding; settings: read-out: Receptors (IC50) 5-HT2B
Protocol: as §2

Sequence of Human Adrenergic α2A (P08913 whole entry): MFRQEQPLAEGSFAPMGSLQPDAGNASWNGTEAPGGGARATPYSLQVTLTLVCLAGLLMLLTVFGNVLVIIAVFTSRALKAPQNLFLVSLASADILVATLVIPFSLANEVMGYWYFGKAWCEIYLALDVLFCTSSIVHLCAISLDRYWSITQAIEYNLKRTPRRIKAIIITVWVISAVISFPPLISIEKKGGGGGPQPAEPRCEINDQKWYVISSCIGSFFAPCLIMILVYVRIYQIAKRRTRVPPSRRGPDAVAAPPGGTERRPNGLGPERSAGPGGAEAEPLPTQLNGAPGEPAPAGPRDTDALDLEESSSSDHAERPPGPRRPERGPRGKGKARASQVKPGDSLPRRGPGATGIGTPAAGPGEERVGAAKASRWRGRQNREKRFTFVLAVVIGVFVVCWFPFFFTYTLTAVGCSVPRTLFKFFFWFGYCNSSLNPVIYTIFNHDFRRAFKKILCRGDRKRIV
Sequence of human serotonin 5-HT2B (P41595 whole entry): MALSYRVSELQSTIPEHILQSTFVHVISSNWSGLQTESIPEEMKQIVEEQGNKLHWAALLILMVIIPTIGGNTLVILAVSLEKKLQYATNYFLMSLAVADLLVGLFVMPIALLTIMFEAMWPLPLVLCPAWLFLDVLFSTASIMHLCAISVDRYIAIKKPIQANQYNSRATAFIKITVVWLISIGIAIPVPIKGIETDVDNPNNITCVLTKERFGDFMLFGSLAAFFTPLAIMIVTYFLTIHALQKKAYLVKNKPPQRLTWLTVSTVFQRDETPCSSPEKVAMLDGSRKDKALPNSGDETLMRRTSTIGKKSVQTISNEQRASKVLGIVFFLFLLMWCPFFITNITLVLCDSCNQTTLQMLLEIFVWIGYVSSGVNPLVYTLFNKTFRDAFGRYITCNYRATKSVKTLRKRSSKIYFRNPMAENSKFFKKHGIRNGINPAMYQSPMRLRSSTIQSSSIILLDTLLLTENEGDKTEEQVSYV
Sequence of Human Adrenergic β3 (P13945 whole entry): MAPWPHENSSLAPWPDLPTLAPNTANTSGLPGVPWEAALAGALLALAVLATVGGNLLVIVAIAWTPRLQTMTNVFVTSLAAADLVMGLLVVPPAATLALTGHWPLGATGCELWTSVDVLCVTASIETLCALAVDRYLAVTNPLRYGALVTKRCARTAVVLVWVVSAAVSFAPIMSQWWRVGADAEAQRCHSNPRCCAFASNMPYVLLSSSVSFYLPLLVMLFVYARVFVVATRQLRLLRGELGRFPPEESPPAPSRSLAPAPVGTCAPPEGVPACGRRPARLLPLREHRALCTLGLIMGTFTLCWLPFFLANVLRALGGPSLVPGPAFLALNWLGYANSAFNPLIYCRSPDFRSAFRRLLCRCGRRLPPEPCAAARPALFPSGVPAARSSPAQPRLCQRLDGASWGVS
Sequence of human serotonin 5-HT2A (P28223 whole entry): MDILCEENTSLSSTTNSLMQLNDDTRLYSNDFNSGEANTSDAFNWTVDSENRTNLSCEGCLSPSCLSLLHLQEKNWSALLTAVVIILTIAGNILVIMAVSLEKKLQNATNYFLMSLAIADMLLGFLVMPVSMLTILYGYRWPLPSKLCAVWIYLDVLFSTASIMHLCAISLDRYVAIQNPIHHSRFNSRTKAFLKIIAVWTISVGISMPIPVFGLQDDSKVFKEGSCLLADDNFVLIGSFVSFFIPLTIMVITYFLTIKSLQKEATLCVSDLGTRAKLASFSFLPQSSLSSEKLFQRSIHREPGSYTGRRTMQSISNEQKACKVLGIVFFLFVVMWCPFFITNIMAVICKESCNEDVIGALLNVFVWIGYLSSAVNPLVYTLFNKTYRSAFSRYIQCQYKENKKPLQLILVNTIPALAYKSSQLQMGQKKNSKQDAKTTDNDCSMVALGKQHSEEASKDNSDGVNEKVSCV
Sequence of Human Orphanin (ORL1) (P41146 whole entry): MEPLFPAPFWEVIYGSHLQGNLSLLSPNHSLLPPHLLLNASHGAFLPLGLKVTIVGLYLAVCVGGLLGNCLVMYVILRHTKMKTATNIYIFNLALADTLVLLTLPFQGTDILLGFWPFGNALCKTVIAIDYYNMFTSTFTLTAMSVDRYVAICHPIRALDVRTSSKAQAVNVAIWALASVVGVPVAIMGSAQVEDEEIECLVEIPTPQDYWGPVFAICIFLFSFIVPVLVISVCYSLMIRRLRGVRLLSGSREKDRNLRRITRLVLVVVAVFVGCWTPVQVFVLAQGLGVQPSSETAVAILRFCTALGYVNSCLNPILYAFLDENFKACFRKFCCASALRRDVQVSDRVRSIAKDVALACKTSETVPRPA
Sequence of Rat GABAB (Q9Z0U4 17-960 limits assumed): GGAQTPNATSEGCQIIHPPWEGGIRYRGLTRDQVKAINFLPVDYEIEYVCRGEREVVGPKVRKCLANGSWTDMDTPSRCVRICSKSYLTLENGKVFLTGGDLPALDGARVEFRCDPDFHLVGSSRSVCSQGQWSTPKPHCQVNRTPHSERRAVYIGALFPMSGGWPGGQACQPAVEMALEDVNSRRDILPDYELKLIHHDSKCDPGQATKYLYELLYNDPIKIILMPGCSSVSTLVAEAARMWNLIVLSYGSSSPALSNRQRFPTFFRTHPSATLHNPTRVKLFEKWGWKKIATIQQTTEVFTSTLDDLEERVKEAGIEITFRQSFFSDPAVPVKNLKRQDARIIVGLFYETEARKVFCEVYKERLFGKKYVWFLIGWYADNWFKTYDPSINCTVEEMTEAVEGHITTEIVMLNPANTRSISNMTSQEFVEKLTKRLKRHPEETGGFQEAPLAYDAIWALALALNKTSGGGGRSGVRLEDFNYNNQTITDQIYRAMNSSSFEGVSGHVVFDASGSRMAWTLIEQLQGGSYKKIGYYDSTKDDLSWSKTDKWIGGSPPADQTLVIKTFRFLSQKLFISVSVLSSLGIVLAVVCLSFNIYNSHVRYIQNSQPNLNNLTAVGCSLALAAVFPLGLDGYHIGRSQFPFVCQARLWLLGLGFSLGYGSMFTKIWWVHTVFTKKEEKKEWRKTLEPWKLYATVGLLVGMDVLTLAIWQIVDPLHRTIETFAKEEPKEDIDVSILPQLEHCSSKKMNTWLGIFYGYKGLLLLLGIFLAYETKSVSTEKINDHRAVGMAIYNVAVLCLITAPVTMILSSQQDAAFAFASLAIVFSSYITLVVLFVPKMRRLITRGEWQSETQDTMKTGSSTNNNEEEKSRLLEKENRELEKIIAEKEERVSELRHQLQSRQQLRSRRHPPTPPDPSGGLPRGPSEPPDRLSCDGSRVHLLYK
Sequence of Rat GABAB (O88871 41-940 partner): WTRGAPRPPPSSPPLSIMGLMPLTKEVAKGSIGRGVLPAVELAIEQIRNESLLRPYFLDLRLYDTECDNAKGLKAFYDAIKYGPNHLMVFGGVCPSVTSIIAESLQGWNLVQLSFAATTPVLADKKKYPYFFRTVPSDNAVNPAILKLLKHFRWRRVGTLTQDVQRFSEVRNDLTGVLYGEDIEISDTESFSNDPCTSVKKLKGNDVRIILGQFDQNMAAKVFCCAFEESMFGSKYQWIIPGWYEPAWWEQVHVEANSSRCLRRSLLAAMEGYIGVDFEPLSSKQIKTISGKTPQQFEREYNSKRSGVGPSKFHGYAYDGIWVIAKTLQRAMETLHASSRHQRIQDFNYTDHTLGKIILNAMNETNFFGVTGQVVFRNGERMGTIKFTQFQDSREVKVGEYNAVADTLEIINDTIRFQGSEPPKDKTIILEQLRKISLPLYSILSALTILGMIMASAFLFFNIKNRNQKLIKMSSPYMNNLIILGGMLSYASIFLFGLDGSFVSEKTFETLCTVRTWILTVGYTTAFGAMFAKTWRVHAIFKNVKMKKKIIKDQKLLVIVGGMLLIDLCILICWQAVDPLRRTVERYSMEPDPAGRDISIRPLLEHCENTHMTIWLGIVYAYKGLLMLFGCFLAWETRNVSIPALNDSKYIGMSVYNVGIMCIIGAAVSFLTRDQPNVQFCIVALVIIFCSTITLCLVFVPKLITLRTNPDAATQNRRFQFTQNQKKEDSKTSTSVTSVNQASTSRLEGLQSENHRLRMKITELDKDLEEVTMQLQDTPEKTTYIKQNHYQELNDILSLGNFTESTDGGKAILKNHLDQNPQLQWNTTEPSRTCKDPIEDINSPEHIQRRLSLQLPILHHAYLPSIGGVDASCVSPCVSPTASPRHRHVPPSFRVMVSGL
Sequence of Human Adrenergic β2 (P07550 whole entry): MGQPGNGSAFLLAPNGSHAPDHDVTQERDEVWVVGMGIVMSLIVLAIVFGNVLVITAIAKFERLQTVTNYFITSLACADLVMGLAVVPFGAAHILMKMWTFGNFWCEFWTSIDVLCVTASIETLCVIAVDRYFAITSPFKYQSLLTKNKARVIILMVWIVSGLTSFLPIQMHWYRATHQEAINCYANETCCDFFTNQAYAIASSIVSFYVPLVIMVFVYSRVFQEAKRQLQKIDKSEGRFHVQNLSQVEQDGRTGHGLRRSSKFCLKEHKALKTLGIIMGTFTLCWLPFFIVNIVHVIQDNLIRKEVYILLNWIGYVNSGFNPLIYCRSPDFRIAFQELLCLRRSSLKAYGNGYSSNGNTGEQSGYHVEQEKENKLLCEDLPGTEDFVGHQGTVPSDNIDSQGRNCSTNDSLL
Sequence of Human Adrenergic β1 (P08588 whole entry): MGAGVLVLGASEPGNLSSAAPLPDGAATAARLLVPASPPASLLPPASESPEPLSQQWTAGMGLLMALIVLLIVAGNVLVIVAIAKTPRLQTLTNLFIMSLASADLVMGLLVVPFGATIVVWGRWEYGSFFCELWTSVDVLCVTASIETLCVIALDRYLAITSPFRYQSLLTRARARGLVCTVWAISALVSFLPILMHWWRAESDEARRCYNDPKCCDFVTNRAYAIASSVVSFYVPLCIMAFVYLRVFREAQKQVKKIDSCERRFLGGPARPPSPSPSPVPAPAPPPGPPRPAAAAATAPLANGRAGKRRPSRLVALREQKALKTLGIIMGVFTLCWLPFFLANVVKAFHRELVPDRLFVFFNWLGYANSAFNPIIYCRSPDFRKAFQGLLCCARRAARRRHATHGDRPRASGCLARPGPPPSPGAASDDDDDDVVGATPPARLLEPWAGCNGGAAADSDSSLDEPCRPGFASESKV

% Inhibition Rat Glutamate, NMDA (Agonist) [1]: No Inhibition
% Inhibition Rat GABAA Transporter (Rat GABAA Transporter): No Inhibition
% Inhibition Rat GABAA Benzodiazepine (Central) [2]: 6%
inhibition at 10 µM (Human Orphanin (ORL1)): 12%
inhibition at 10 µM [3]: 16%
% Inhibition Rat GABAA Chloride Channel [4]: No Inhibition
inhibition at 10 µM (Human Adrenergic α2C): 2%
% Inhibition Rat GABAA Agonist Site (Rat GABAA Agonist Site): 13%
inhibition at 10 µM (Human Adrenergic α2A): 34%
% Inhibition Rat Adrenergic α1 (Rat Adrenergic α1): 21%
inhibition at 10 µM (Human Adrenergic β3): 19%
% Inhibition Rat Glutamate, NMDA (Phencyclidine) [5]: No Inhibition
% Inhibition Rat GABAB (Rat GABAB): No Inhibition
inhibition at 10 µM (Human Adrenergic β1): 3%
inhibition at 10 µM (Human Adrenergic β2): 15%
inhibition at 10 µM [6]: 2%
% Inhibition Rat Glutamate, NMDA (Polyamine) [7]: 12%
Structure (SMILES): O=C1CCC2(CCN(Cc3ccc(F)cc3)CC2)Nc2ccccc21 [Compound 31, 1′-(4-fluorobenzyl)-3,4-dihydrospiro[5H-1-benzazepine-2(1H)-4′-piperidin]-5-one]

IC50 (human serotonin 5-HT2A): > 1000 nM
IC50 (human serotonin 5-HT2B): < 1000 nM
Structure (SMILES): OC1CCC2(CCN(Cc3ccc(F)cc3)CC2)Nc2ccccc21 (racemic) [Compound 32, 1′-(4-fluorobenzyl)-3,4-dihydrospiro[5H-1-benzazepine-2(1H)-4′-piperidin]-5ol]
MK-801-induced locomotion (Male Wistar rats): caused a reduction
MK-801-induced stereotypies (Male Wistar rats): caused a reduction
anxiolytic effect in elevated plus-maze (Male rats): tendency towards an anxiolytic effects
